Literature values in patent publication US20150030666A1, “ADHESIVE SKIN PATCH” (KM TRANSDERM LTD., priority 2011, published 2015).

Conditions: in vivo, po

O=C(O[C@H]1CN2CCC1CC2)N1CCc2ccccc2[C@@H]1c1ccccc1 [solifenacin succinate, (3R)-1-azabicyclo[2.2.2]oct-3-yl(1S)-1-phenyl-3,4-dihydroisoquinoline-2(1H)-carboxylate]
half-life in blood: about 50 hr
